Results taken from US20090081174A1 (priority 2005, published 2009).
Where two headings read alike, the source gives them in different places.

Legend:
Plasmopara viticola = experiment: 7-day preventive activity on Plasmopara viticola, leaf application on vines; type: in vivo
Procedure: Leaves of cultivar Merlot vines, grown in vases, in a conditioned environment (20±1° C., 70% relative humidity) are treated by spraying both sides of the leaves with the mixtures under examination dispersed in an aqueous solution containing a 0.3% of tween 20.
After remaining 7 days in a conditioned environment, the plants are infected on the lower side with an aqueous suspension of spores of Plasmopara viticola (200,000 spores per cm^3).
The plants are kept in a humidity saturated environment, at 21° C., for the incubation period of the fungus and, at the end of this period (7 days), the fungicidal activity is evaluated according to an evaluation percentage scale from 100 (healthy plant) to 0 (completely infected plant).
From the data indicated in tables 1-2, it is possible to verify the synergistic effect of the mixtures, consisting of the mixtures being examined, compared with the expected efficacy using the Limpel formula (“Pesticide Science” (1987), vol. 19, pages 309-315): […]
wherein: • E is the fungicidal activity expected, in the absence of synergistic effects, from a mixture obtained by mixing g·x of compound X with g·y of compound Y; • x is the activity of compound X when used alone with a dosage of g·x; • y is the activity of compound Y when used alone with a dosage of g·y. […]

Phytophthora infestans = type: in vivo; conditions: potato plants, scale 100 to 0

Compound	Activity (y) (Plasmopara viticola; listed phosphite salt(s) alone at 250 ppm equivalent phosphorous acid, scale 100 to 0)	Activity (y) (Phytophthora infestans; Table 4: listed phosphite salt(s) alone at 750 ppm equivalent phosphorous acid)	Activity (y) (Phytophthora infestans; Table 5: listed phosphite salt(s) alone at 750 ppm equivalent phosphorous acid)	Activity (y) (Plasmopara viticola; listed salt alone at 500 ppm equivalent phosphorous acid, scale 100 (healthy) to 0 (completely infected))	Activity (y) (Phytophthora infestans; listed salt alone at 750 ppm equivalent phosphorous acid)
O=[PH]([O-])[O-].[Cu+2] [CuHPO3, copper (II) salt of phosphorous acid]	35	12	12		
K2HPO3 [Mixture K2HPO3]				45	5
